Data taken from patent US12234257B2, “Triterpene saponin derivative and use thereof” (KOREA INSTITUTE OF SCIENCE AND TECHNOLOGY, priority 2020, dated 2025).

Columns and labels:
Parameters in all cases: species or system mice (C57BL/6j)
[1] = system: MPTP-induced in vivo PD model; assay: Rotarod test; conditions: MPTP 30 mg/kg i.p. mice; for behavioral performance in rotarod test (latency to fall): 2 hours and 24 hours after last MPTP
Procedure: In this study, all animal management and experimental protocols were performed in compliance with guidelines of the Institutional Animal Care and Use Committee of the Korea Institute of Science and Technology. 40 mice (C57BL/6j, male, 8 weeks old) were purchased from SLC Inc. (Shizuoka, Japan). After arrival, every four mice were hosed in each cage (30 cm×18.5 cm×13 cm) and allowed free access to feed and water. All mice were housed under the following constant conditions: lights on from 6:00 to 18:00, a temperature of 23° C.±1° C., and a humidity of 50%±10%. After 7 days of a habituation period, the mice were used in the experiments according to standard protocols. 40 mice were classified into five groups such that eight mice belonged to each group. After the habituation period, all mice were orally administered with a drug every day. […] Each mouse was administered with a single dose of saline/MPTP injection every day for 8 days. At 7 days after the final MPTP injection, all mice were sacrificed by cervical dislocation, and then the whole brain, SNpc, and striatum (ST) were excised for biochemical analysis. […] A rotarod test was performed according to a known method with minimal modification (Borlongan C. V. et al., Pharmacology Biochemistry and Behavior. 1995, 52:225; Hu X. et al., Neuropharmacology, 2017, 117:352). Briefly, the test consisted of a pretraining section and a test section. The pretraining section was performed for consecutive 4 days. The mice were positioned in a cylinder of a rotarod apparatus such that tails of all mice faced an operator and trained for 300 seconds at a constant speed of 16 rpm. During the 300 seconds, mice falling to the floor were placed back on the cylinder by the operator. All mice were trained three times in total every day at an interval of about 30 minutes before administration of MPTP. […] Latency to fall off the rotarod was recorded for each mouse. […] Latency to fall off the rotarod was measured for each mouse. […] An average time of three tests was calculated to evaluate balance, grip strength, and motor coordination.

[2] = system: MPTP-induced in vivo PD model; assay: Pole test; conditions: MPTP mice, 2 hours
Procedure: In this study, all animal management and experimental protocols were performed in compliance with guidelines of the Institutional Animal Care and Use Committee of the Korea Institute of Science and Technology. 40 mice (C57BL/6j, male, 8 weeks old) were purchased from SLC Inc. (Shizuoka, Japan). After arrival, every four mice were hosed in each cage (30 cm×18.5 cm×13 cm) and allowed free access to feed and water. All mice were housed under the following constant conditions: lights on from 6:00 to 18:00, a temperature of 23° C.±1° C., and a humidity of 50%±10%. After 7 days of a habituation period, the mice were used in the experiments according to standard protocols. 40 mice were classified into five groups such that eight mice belonged to each group. After the habituation period, all mice were orally administered with a drug every day. […] Each mouse was administered with a single dose of saline/MPTP injection every day for 8 days. At 7 days after the final MPTP injection, all mice were sacrificed by cervical dislocation, and then the whole brain, SNpc, and striatum (ST) were excised for biochemical analysis. […] Each mouse was placed on the top of the pole with the head raised up, and a time taken for the mouse to turn and descend the pole was recorded up to 120 seconds with a stopwatch. […] An average time of three tests was calculated to evaluate motor function.

[3] = system: MPTP-induced in vivo PD model; assay: Wire hanging test; conditions: MPTP mice
Procedure: In this study, all animal management and experimental protocols were performed in compliance with guidelines of the Institutional Animal Care and Use Committee of the Korea Institute of Science and Technology. 40 mice (C57BL/6j, male, 8 weeks old) were purchased from SLC Inc. (Shizuoka, Japan). After arrival, every four mice were hosed in each cage (30 cm×18.5 cm×13 cm) and allowed free access to feed and water. All mice were housed under the following constant conditions: lights on from 6:00 to 18:00, a temperature of 23° C.±1° C., and a humidity of 50%±10%. After 7 days of a habituation period, the mice were used in the experiments according to standard protocols. 40 mice were classified into five groups such that eight mice belonged to each group. After the habituation period, all mice were orally administered with a drug every day. […] Each mouse was administered with a single dose of saline/MPTP injection every day for 8 days. […] A time taken for the mouse to fall off the wire was recorded up to 300 seconds. On the day before MPTP administration, the test was performed three times for each mouse, and an average hanging time of three tests was analyzed as an index to evaluate balance, myofunction, and coordination. […] Average latency to fall off the wire onto the bedding material was calculated for each mouse.

Q: For `C[C@@H]1O[C@@H](O[C@@H]2[C@@H](O)[C@H](O[C@@H]3[C@@H](O[C@@H]4OC[C@@H](O)[C@H](O)[C@H]4O)[C@@H](O)[C@H](O[C@H]4[C@H](OC(=O)[C@]56CCC(C)(C)C[C@H]5C5=CC[C@@H]7[C@@]8(C)C[C@H](O)[C@H](O[C@@H]9O[C@H](CO)[C@@H](O)[C@H](O[C@@H]%10OC[C@@H](O)[C@H](O)[C@H]%10O)[C@H]9O)[C@@](C)(CO)[C@@H]8CC[C@@]7(C)[C@]5(C)C[C@H]6O)OC[C@H](O)[C@@H]4O)O[C@H]3C)OC[C@H]2O)[C@H](O)[C@H](O)[C@H]1O` [Compound 1, 3-O-β-D-xylopyranosyl-(1→3)-β-D-glucopyranosylpolygalacic acid 28-O-α-L-rhamnopyranosyl-(1→3)-β-D-xylopyranosyl-(1→4)-[β-D-xylopyranosyl-(1→3)]-α-L-rhamnopyranosyl-(1→2)-α-L-arabinopyranosyl ester], which “behavior performance in rotarod test (latency to fall)” value ([1]; 5 mg/kg p.o., at 24 hours) is on record?
A: Its value is “significantly improved MPTP-impaired behavior performance”.

Q: And the “behavioral performance in rotarod test (latency to fall)” value ([1]; 15 mg/kg p.o.)?
A: Its value is “the impairment was reversed”.

Q: And the “behavior performance in pole test” value ([2]; 5 mg/kg and 15 mg/kg p.o.)?
A: The value was “considerably restored”.

Q: And the “behavior performance in wire hanging test” value ([3]; 15 mg/kg p.o., 2 hours and 24 hours)?
A: Its value is “impaired behavior performance was significantly improved”.

Q: `CCCN(CCC)CCc1cccc2c1CC(=O)N2` [ropinirole, reference compound] was tested. Which “behavioral performance in rotarod test (latency to fall)” value ([1]; 5 mg/kg p.o.) did it give?
A: Its value is “the impairment was reversed”.

Q: What about the “behavior performance in pole test” value ([2]; ropinirole (5 mg/kg p.o.)) of the same compound?
A: The value was “considerably restored”.

Q: What about the “latency to fall off in wire hanging test” value ([3]; 5 mg/kg p.o., 2 hours) of the same compound?
A: The value was “improved latency deteriorated by MPTP”.
